Source: patent US20080038809A1, “ISOLATED LECTIN POLYPEPTIDES CONSISTING OF TRUNCATED […] UDP-GalNAc:POLYPEPTIDE N- ACETYLGALACTOSAMINYLTRANSFERASES” (GLYCOZYM APS, priority 2002, published 2008)
Entries after “also recorded” stand apart in the source; their conditions may differ.

Tests used:
[1] = test system: MUC1 secreted by wild type CHO/MUC1sol-cloneC4; test: Secreted MUC1 in medium, western blot; format: cell-based, Chinese Hamster; settings: 1-2 mM, compared to control treated or non-treated cells
Source text: Because GalNAcα-benzyl exerts separate effects on O-glycan processing and mucin expression, the use of the novel selective inhibitor of mucin expression, GalNAcβ-benzyl, allow analysis of mucin expression and secretion in different cell line models. Examples of human cell lines (available from ATCC, USA) expressing and secreting mucins are without limitations LS174T, HT29, Colo205, CALU, MCF7, T47D, NCI-H292, and A549. Most human adenocarcinoma cell lines express and secret mucins and analysis with antibodies to detect protein expression or probes to detect mRNA can reveal the types and quantities of mucins. […] This and other cell lines can be used to treat with 2 mM GalNAcβ-benzyl. In this Example we used wild type CHO/MUC1sol-cloneC4 and western blot analysis of medium of cells treated with 1-2 mM GalNAcα-benzyl, GalNAcβ-benzyl, or the control GlcNAcα-benzyl. […] The inhibitory effect on mucin secretion can be quantified by a number of assays known to the skilled in the art including western blot, ELISA, gelfiltration, immunocapture, and other assays.

[2] = molecular target: T1, human GalNAc-T2 (UDP-GalNAc:polypeptide N-acetylgalactosaminyltransferase T2) isolated truncated lectin domain (T2ld), HIS-tagged, amino acid residues 408-571 o (Homo sapiens, UniProt Q10471); format: binding
T1 sequence (Q10471 408-571): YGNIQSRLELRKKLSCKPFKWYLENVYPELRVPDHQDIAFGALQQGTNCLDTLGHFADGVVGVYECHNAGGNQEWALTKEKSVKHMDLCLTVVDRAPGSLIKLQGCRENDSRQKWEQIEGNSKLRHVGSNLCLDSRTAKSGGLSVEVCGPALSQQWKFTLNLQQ
Source text: (§1) In order to minimize the size and functional complexity of GalNAc-transferase lectins to be used as probes for binding studies, we used multiple sequence alignment analysis to predict and design suitable expression constructs for isolated lectin domains (FIG. 2). In the present invention a direct binding assay was developed using isolated lectin domains of GalNAc-T4 and -T2 with minimal size (FIG. 5). […] The lectin Helix Pomatia (HP) was used as a control plant lectin with known binding specificity for […].
(§2) Direct binding ELISA assay was developed as follows: Polystyrene microtiter plates (Maxisorb, Nunc, Denmark) were coated with peptides or enzymatically glycosylated glycopeptides in PBS overnight at 4° C. Plates were washed and blocked with 0.1% Tween20 and 0.2% BSA in PBS for 1 h at room temperature, followed by incubation with biotinylated proteins in PBS with 0.05% Tween20 for 2 h at room temperature. After four washes with PBS, plates were incubated with 1:2,000 dilution streptavidin-HRP (Sigma) in PBS for 30 min at room temperature and washed four times with PBS. Development was performed with 0.5 mg/ml o-phenylenediamine and 0.02% H2O2 at room temperature for 15 min, and reaction stopped by adding 100 μl/well of 0.5 N H2SO4. Competitive inhibition assays were done at end-point titers of GalNAc-transferase proteins with one hour preincubations with inhibitor.
(§3) In binding studies using lectins without biotinylation antibodies to the HIS-tag and the T7-tag, or in some experiments antibodies raised to GalNAc-T2 and -T4 enzymes were used to detect binding.
(§4) Inhibition experiments were used to further define the binding specificity of GalNAc-T2 and -T4 secreted soluble enzymes as well as lectin domains compared to Helix Pomatia lectin (Table IV).
(§5) The ligand target used in this Example is a GalNAc-MUC1 glycopeptide produced enzymatically from synthetic peptides.

[3] = molecular target: human GalNAc-T4 (UDP-GalNAc:polypeptide N-acetylgalactosaminyltransferase T4) isolated truncated lectin domain (T4ld), HIS-tagged, amino acid residues 405-578 o (Homo sapiens, UniProt Q8N4A0); test: biochemical; format: binding; settings: isolated lectin domain
human GalNAc-T4 (UDP-GalNAc:polypeptide N-acetylgalactosaminyltransferase T4) isolated truncated lectin domain (T4ld), HIS-tagged, amino acid residues 405-578 o, sequence (Q8N4A0 405-578): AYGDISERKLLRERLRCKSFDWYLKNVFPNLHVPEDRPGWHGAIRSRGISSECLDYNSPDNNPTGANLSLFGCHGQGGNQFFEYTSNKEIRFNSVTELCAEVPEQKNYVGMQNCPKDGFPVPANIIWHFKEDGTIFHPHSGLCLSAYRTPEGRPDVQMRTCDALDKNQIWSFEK
Source text: as §1, §2, §3, §4, §5

[4] = test system: intracellular MUC5AC, HT29MTX cells; test: Intracellular MUC5AC by immunofluorescence staining of HT29MTX cells; format: cell-based, human; settings: 5 mM, CLH2 antibody
Source text: FIG. 18 illustrates immuno-fluorescence staining of HT29MTX cells treated with inhibitors as indicated and stained with the anti-MUC5AC monoclonal antibody, CLH2.
In order to evaluate GalNAcβ-benzyl as an inhibitor of mucin glycosylation and secretion we used the cultured colon carcinoma cells of mucin secreting phenotypes: HT-29 metotrexate (MTX) cells selected from the HT-29 cell line by culture in the presence of MTX (kind gift from G. Huet, France). The HT-29 MTX cells were selected to yield a goblet cell like phenotype with constitutive production of MUC5AC. In order to ensure proper goblet cell differentiation the HT29MTX cell line were continuously grown up to 21 days in the presence of 5 mM GalNAcα-benzyl, 5 mM GalNAcβ-benzyl, 5 mM GlcNAcα-benzyl and without inhibitor using culture conditions as described in Hennebicq-Reig et al. (Permanent exposure of mucin-secreting HT-29 cells to benzyl-N-acetyl-alpha-D-galactosaminide induces abnormal O-glycosylation of mucins and inhibits constitutive and stimulated MUC5AC secretion. Biochem J. 1998; 334:283-95). […] Furthermore the viscosity of the media from cells with and without inhibitor was evaluated using viscosity micro-measurement.

| SMILES | secreted MUC1 in medium [1] | inhibition of GalNAc-T2 lectin domain binding (in words) [2] | inhibition of GalNAc-T4 lectin domain binding (in words) [3] | intracellular staining of MUC5AC / storage phenotype [4] |
| --- | --- | --- | --- | --- |
| CC(=O)N[C@H]1[C@@H](OCc2ccccc2)O[C@H](CO)[C@H](O)[C@@H]1O [BzlαGalNAc, benzyl-N-acetyl-alpha-D-galactosaminide] | inhibition |  |  |  |
| CC(=O)N[C@H]1[C@@H](OCc2ccccc2)O[C@H](CO)[C@H](O)[C@@H]1O [GalNAcα-benzyl, benzyl-N-acetyl-alpha-D-galactosaminide] |  | inhibited binding to the same degree | inhibited binding to the same degree | storage phenotype with increased intracellular staining of MUC5AC |
| CC(=O)N[C@H]1[C@H](OCc2ccccc2)O[C@H](CO)[C@H](O)[C@@H]1O [GalNAcβ-benzyl] | inhibition | inhibited binding to the same degree | inhibited binding to the same degree | did not lead to a storage disease phenotype; also recorded: clearly diminished intracellular staining of MUC5AC |
